In patent publication US10787452B2 (Vertex Pharmaceuticals Incorporated, priority 2012, dated 2020):

Tested on: HCT116 colorectal cancer cells
Experiment: Cisplatin sensitization assay (96 h cell viability MTS);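 note: compound concentration needed to lower the Cisplatin-alone IC50 by a set fold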
Assay type: cell-based
Details: 96 h MTS, compound plus Cisplatin
How it was run: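 Simultaneous addition of compound and cisplatin (2-fold series, top 10 μM final, full matrix), followed by 96 h culture at 37° C/5% CO2 and a 1 h MTS viability read.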

SMILES	Cisplatin Sensitization Assay
CC(C)(O)CN1CCN(c2c(F)cncc2NC(=O)c2c(N)nn3cc(F)cnc23)CC1 [I-N-139, 2-amino-6-fluoro-N-(5-fluoro-4-(4-(2-hydroxy-2-methylpropyl)piperazin-1-yl)pyridin-3-yl)pyrazolo[1,5-a]pyrimidine-3-carboxamide]	+++ (Compounds with a Cisplatin sensitization value of <0.02 μM are marked with “+++.”)
CN1CCN(C(=O)N2CCN(c3c(F)cncc3NC(=O)c3c(N)nn4cc(F)cnc34)CC2)CC1 [I-N-140, 2-amino-6-fluoro-N-(5-fluoro-4-(4-(4-methylpiperazine-1-carbonyl)piperazin-1-yl)pyridin-3-yl)pyrazolo[1,5-a]pyrimidine-3-carboxamide]	+++ (Compounds with a Cisplatin sensitization value of <0.02 μM are marked with “+++.”)
Nc1nn2cc(F)cnc2c1C(=O)Nc1cnccc1N1CCOCC1 [I-N-141, 2-amino-6-fluoro-N-(4-morpholinopyridin-3-yl)pyrazolo[1,5-a]pyrimidine-3-carboxamide]	+++ (Compounds with a Cisplatin sensitization value of <0.02 μM are marked with “+++.”)
CC(C)(C#N)c1cnc2c(C(=O)Nc3cnccc3N3CCN(C4COC4)CC3)c(N)nn2c1 [I-N-142, 2-amino-6-(2-cyanopropan-2-yl)-N-(4-(4-(oxetan-3-yl)piperazin-1-yl)pyridin-3-yl)pyrazolo[1,5-a]pyrimidine-3-carboxamide]	++ (Compounds with a Cisplatin sensitization value >0.02 μM but <0.2 μM are marked with “++.”)
CC(C#N)c1cnc2c(C(=O)Nc3cnccc3N3CCN(C4COC4)CC3)c(N)nn2c1 (centres unmarked) [I-N-143, 2-amino-6-(1-cyanoethyl)-N-(4-(4-(oxetan-3-yl)piperazin-1-yl)pyridin-3-yl)pyrazolo[1,5-a]pyrimidine-3-carboxamide]	++ (Compounds with a Cisplatin sensitization value >0.02 μM but <0.2 μM are marked with “++.”)
CC(C)(C#N)c1cnc2c(C(=O)Nc3cncc(F)c3N3CCN(C4COC4)CC3)c(N)nn2c1 [I-N-144]	+++ (Compounds with a Cisplatin sensitization value of <0.02 μM are marked with “+++.”)
CN(C)S(=O)(=O)C1CCN(c2c(F)cncc2NC(=O)c2c(N)nn3cc(F)cnc23)CC1 [I-N-146, 2-amino-N-(4-(4-(N,N-dimethylsulfamoyl)piperidin-1-yl)-5-fluoropyridin-3-yl)-6-fluoropyrazolo[1,5-a]pyrimidine-3-carboxamide]	+++ (Compounds with a Cisplatin sensitization value of <0.02 μM are marked with “+++.”)
Nc1nn2cc(F)cnc2c1C(=O)Nc1cncc(F)c1N1CCC(N2CCCC2=O)CC1 [I-N-147, 2-amino-6-fluoro-N-(5-fluoro-4-(4-(2-oxopyrrolidin-1-yl)piperidin-1-yl)pyridin-3-yl)pyrazolo[1,5-a]pyrimidine-3-carboxamide]	+++ (Compounds with a Cisplatin sensitization value of <0.02 μM are marked with “+++.”)
CN1CCC(N(C)S(=O)(=O)C2CCN(c3c(F)cncc3NC(=O)c3c(N)nn4cc(F)cnc34)CC2)CC1 [I-N-148, 2-amino-6-fluoro-N-(5-fluoro-4-(4-(N-methyl-N-(1-methylpiperidin-4-yl)sulfamoyl)piperidin-1-yl)pyridin-3-yl)pyrazolo[1,5-a]pyrimidine-3-carboxamide]	+++ (Compounds with a Cisplatin sensitization value of <0.02 μM are marked with “+++.”)
Nc1nn2cc(F)cnc2c1C(=O)Nc1cncc(F)c1N1CCC(CN2CCOCC2)CC1 [I-N-149, 2-amino-6-fluoro-N-(5-fluoro-4-(4-(morpholinomethyl)piperidin-1-yl)pyridin-3-yl)pyrazolo[1,5-a]pyrimidine-3-carboxamide]	+++ (Compounds with a Cisplatin sensitization value of <0.02 μM are marked with “+++.”)
CN1CCN(CC2CCN(c3c(F)cncc3NC(=O)c3c(N)nn4cc(F)cnc34)CC2)CC1 [I-N-150, 2-amino-6-fluoro-N-(5-fluoro-4-(4-((4-methylpiperazin-1-yl)methyl)piperidin-1-yl)pyridin-3-yl)pyrazolo[1,5-a]pyrimidine-3-carboxamide]	+++ (Compounds with a Cisplatin sensitization value of <0.02 μM are marked with “+++.”)
CN1CCN(C2CCN(c3c(F)cncc3NC(=O)c3c(N)nn4cc(F)cnc34)CC2)C(=O)C1 [I-N-151, 2-amino-6-fluoro-N-(5-fluoro-4-(4-(4-methyl-2-oxopiperazin-1-yl)piperidin-1-yl)pyridin-3-yl)pyrazolo[1,5-a]pyrimidine-3-carboxamide]	+ (Compounds with a Cisplatin sensitization value >0.2 μM but <5 μM are marked with “+.”)
Nc1nn2cc(F)cnc2c1C(=O)Nc1cnccc1N1CCCCC1 [I-N-152, 2-amino-6-fluoro-N-(4-(piperidin-1-yl)pyridin-3-yl)pyrazolo[1,5-a]pyrimidine-3-carboxamide]	+++ (Compounds with a Cisplatin sensitization value of <0.02 μM are marked with “+++.”)
CN(C)CC(=O)N1CCN(c2c(F)cncc2NC(=O)c2c(N)nn3cc(F)cnc23)CC1 [I-N-153, 2-amino-N-(4-(4-(2-(dimethylamino)acetyl)piperazin-1-yl)-5-fluoropyridin-3-yl)-6-fluoropyrazolo[1,5-a]pyrimidine-3-carboxamide]	++ (Compounds with a Cisplatin sensitization value >0.02 μM but <0.2 μM are marked with “++.”)
CN1CCC(OC2CCN(c3ccncc3NC(=O)c3c(N)nn4cc(F)cnc34)CC2)CC1 [I-N-154, 2-amino-6-fluoro-N-(4-(4-((1-methylpiperidin-4-yl)oxy)piperidin-1-yl)pyridin-3-yl)pyrazolo[1,5-a]pyrimidine-3-carboxamide]	+++ (Compounds with a Cisplatin sensitization value of <0.02 μM are marked with “+++.”)
Nc1nn2cc(F)cnc2c1C(=O)Nc1cncc(F)c1N1CCC(S(=O)(=O)N2CCOCC2)CC1 [I-N-155, 2-amino-6-fluoro-N-(5-fluoro-4-(4-(morpholinosulfonyl)piperidin-1-yl)pyridin-3-yl)pyrazolo[1,5-a]pyrimidine-3-carboxamide]	+++ (Compounds with a Cisplatin sensitization value of <0.02 μM are marked with “+++.”)
CN1CCC(C(=O)N2CCN(c3c(F)cncc3NC(=O)c3c(N)nn4cc(F)cnc34)CC2)C1 (centres unmarked) [I-N-156, 2-amino-6-fluoro-N-(5-fluoro-4-(4-(1-methylpyrrolidine-3-carbonyl)piperazin-1-yl)pyridin-3-yl)pyrazolo[1,5-a]pyrimidine-3-carboxamide]	+++ (Compounds with a Cisplatin sensitization value of <0.02 μM are marked with “+++.”)
CN1CCC[C@H]1C(=O)N1CCN(c2c(F)cncc2NC(=O)c2c(N)nn3cc(F)cnc23)CC1 [I-N-157, (S)-2-amino-6-fluoro-N-(5-fluoro-4-(4-(1-methylpyrrolidine-2-carbonyl)piperazin-1-yl)pyridin-3-yl)pyrazolo[1,5-a]pyrimidine-3-carboxamide]	++ (Compounds with a Cisplatin sensitization value >0.02 μM but <0.2 μM are marked with “++.”)
Nc1nn2cc(F)cnc2c1C(=O)Nc1cncc(F)c1N1CCN(S(=O)(=O)C2CCOCC2)CC1 [I-N-158, 2-amino-6-fluoro-N-(5-fluoro-4-(4-((tetrahydro-2H-pyran-4-yl)sulfonyl)piperazin-1-yl)pyridin-3-yl)pyrazolo[1,5-a]pyrimidine-3-carboxamide]	+++ (Compounds with a Cisplatin sensitization value of <0.02 μM are marked with “+++.”)
Nc1nn2cc(F)cnc2c1C(=O)Nc1cncc(F)c1N1CCN(S(=O)(=O)C2CC2)CC1 [I-N-159, 2-amino-N-(4-(4-(cyclopropylsulfonyl)piperazin-1-yl)-5-fluoropyridin-3-yl)-6-fluoropyrazolo[1,5-a]pyrimidine-3-carboxamide]	+++ (Compounds with a Cisplatin sensitization value of <0.02 μM are marked with “+++.”)
Nc1nn2cc(F)cnc2c1C(=O)Nc1cncc(F)c1N1CCN(C(=O)CN2CCC2)CC1 [I-N-160, 2-amino-N-(4-(4-(2-(azetidin-1-yl)acetyl)piperazin-1-yl)-5-fluoropyridin-3-yl)-6-fluoropyrazolo[1,5-a]pyrimidine-3-carboxamide]	+++ (Compounds with a Cisplatin sensitization value of <0.02 μM are marked with “+++.”)
Cc1ncn(-c2ccncc2NC(=O)c2c(N)nn3cc(F)cnc23)n1 [I-N-161, 2-amino-6-fluoro-N-(4-(3-methyl-1H-1,2,4-triazol-1-yl)pyridin-3-yl)pyrazolo[1,5-a]pyrimidine-3-carboxamide]	+ (Compounds with a Cisplatin sensitization value >0.2 μM but <5 μM are marked with “+.”)
Cc1ncnn1-c1ccncc1NC(=O)c1c(N)nn2cc(F)cnc12 [I-N-162, 2-amino-6-fluoro-N-(4-(5-methyl-1H-1,2,4-triazol-1-yl)pyridin-3-yl)pyrazolo[1,5-a]pyrimidine-3-carboxamide]	++ (Compounds with a Cisplatin sensitization value >0.02 μM but <0.2 μM are marked with “++.”)
Nc1nn2cc(F)cnc2c1C(=O)Nc1cncc(F)c1N1CCN2C(=O)CCC2C1 (centres unmarked) [I-N-163, 2-amino-6-fluoro-N-(5-fluoro-4-(6-oxohexahydropyrrolo[1,2-a]pyrazin-2(1H)-yl)pyridin-3-yl)pyrazolo[1,5-a]pyrimidine-3-carboxamide]	+++ (Compounds with a Cisplatin sensitization value of <0.02 μM are marked with “+++.”)
CN1CC(OC2CCN(c3ccncc3NC(=O)c3c(N)nn4cc(F)cnc34)CC2)C1 [I-N-164, 2-amino-6-fluoro-N-(4-(4-((1-methylazetidin-3-yl)oxy)piperidin-1-yl)pyridin-3-yl)pyrazolo[1,5-a]pyrimidine-3-carboxamide]	+++ (Compounds with a Cisplatin sensitization value of <0.02 μM are marked with “+++.”)
CS(=O)(=O)C1CCN(c2c(F)cncc2NC(=O)c2c(N)nn3cc(F)cnc23)CC1 [I-N-165, 2-amino-6-fluoro-N-(5-fluoro-4-(4-(methylsulfonyl)piperidin-1-yl)pyridin-3-yl)pyrazolo[1,5-a]pyrimidine-3-carboxamide]	+++ (Compounds with a Cisplatin sensitization value of <0.02 μM are marked with “+++.”)
